Reference: US7410806B2, “Compound for inhibiting the influx of polymorphonuclear leukocytes (PMNs) in a tissue, its selection, pharmaceutical compositions and use” (Fornix Biosciences N.V., priority 1999, dated 2008)

Assays:
[1] = system: PGP-induced PMN influx in the mouse lung; assay: PGP-induced PMN influx in the mouse lung (lung-wash cell counts); type: in vivo, Balb/c mice; conditions: for Eos in lung-wash liquid / Monos in lung-wash liquid / Neutros in lung-wash liquid / Total cells in lung-wash liquid: PBS pre-treatment, atomization of the substance (10^-3 M, 30 min), 5 h after onset, ± SEM; for Influx of neutrophilic and eosinophilic granulocytes in the lungs: atomization of the substance
Procedure: Solutions were prepared of N—Ac-PGP (0.36 mg/ml; 10^−3 M) and N-methyl-PGP (0.32 mg/ml; 10^−3 M) in phosphate-buffered physiological salt (PBS). In an atomizing chamber, 6-8 weeks old Balb/c mice (groups of 4 mice) were subjected for 30 minutes to either N-acetyl-PGP or N-methyl-PGP. Control mice only received PBS. One hour prior to subjection in the atomizing chamber and one hour after the start of subjection each mouse received 50 μl of 1 mg/ml 4RTR. The treatment is outlined in the Table I below.
5 Hours after the onset of subjection the mice were sacrificed by administering an overdose of Nembutal. After the application of a tracheal canula the lungs were washed with 4 ml PBS. The lung-wash liquid was centrifuged (5 min.; 4° C.; 580 g) and the cell pellet was taken up in 150 μl PBS. The cells were counted under the microscope. To distinguish between neutrophilic and eosinophilic granulocytes and mononuclear cells (haematoxylin/eosin dye, H/E dye: Diff-Quick, Merz & Dade, A. G. Dübingen, Switzerland), the cytospin technique was applied (Buckley, T. L. and Nijkamp, F. P., “Airways hyperreactivity and cellular accumulation in a delayed-type hypersensitivity reaction in the mouse: modulation by capsaicin-sensitive nerves”. Am. J. Respir. Crit. Care Med. 149: 400-407 (1994)).

[2] = system: alveolar dilatation (lung emphysema); assay: Lung emphysema induced by N-AcPGP: mean linear intercept (Lm); type: in vivo, C75Bl/6J mice; conditions: N-AcPGP aerosol day 0, 2, 7; lungs on day 21; FIG. 1
Procedure: (§1) On day 0, 2 and 7, two groups C75Bl/6J mice received 30 minutes' treatment with an aerosol (in an atomizing chamber as described in example 1) comprising (i) vehicle (phosphate-buffered physiological salt solution), (ii) N—AcPGP (0.4 mg/ml) or (iii) N—AcPGP (0.4 mg/ml) and 4-RTR (1 mg/ml). 30 minutes prior to the aerosol, the mice of group (i) and (ii) received intranasal vehicle and the mice of group (iii), 4RTR (1 mg/ml). […] (see Table III).
On day 21 the mice of the second group (which on day 0, 2, and 7 were treated in the same manner as the mice of the first group), were sacrificed by means of an overdose of anaesthetic (Nembutal) and the lungs were isolated and fixed by filling the lungs with Carnoy's fixative under a liquid pressure of 25 cm. The lungs were prepared for histological analysis. The mean linear intercept (Lm), indicative for alveolar dilatation, was calculated by placing a grid over the illustrations of 5 separate fields (300× magnification) per mouse lung. The total length of the lines was divided by the number of intercepts, resulting in the Lm, providing a measure for the average size of the bronchial volume of the lung.

[3] = system: inflammatory cells in the bronchial-alveolar liquid; type: in vivo, C57B1/6J mice; conditions: for Number PMNs in bronchial-alveolar liquid / Total number infl. cells in bronchial-alveolar liquid: substance alone, aerosol on day 0, 2 and 7, 24 h after final treatment (day 8), n=3
Procedure: as §1

Substance | Eos in lung-wash liquid [1] | Monos in lung-wash liquid [1] | Neutros in lung-wash liquid [1] | Total cells in lung-wash liquid [1] | Influx of neutrophilic and eosinophilic granulocytes in the lungs [1] | Mean linear intercept (Lm), indicative for alveolar dilatation [2] | Increase of the total number of inflammatory cells in the bronchial-alveolar washing liquid in comparison with the vehicle control ([3]; N-AcPGP 0.4 mg/ml aerosol day 0, 2, 7, day 8) [fold] | Number PMNs in bronchial-alveolar liquid [3] | Total number infl. cells in bronchial-alveolar liquid [3]
N-methyl-Pro-Gly-Pro [N-methylPGP] | 0.2 ± 0.1 ×10^4 cells/ml | 33.9 ± 3.4 ×10^4 cells/ml | 11.9 ± 3.6 ×10^4 cells/ml | 46.1 ± 3.2 ×10^4 cells/ml | results in the influx of neutrophilic and eosinophilic granulocytes in the lungs | – | – | – | –
N-acetyl-Pro-Gly-Pro [N-AcPGP] | 1.1 ± 0.6 ×10^4 cells/ml | 28.3 ± 8.6 ×10^4 cells/ml | 20.1 ± 7.5 ×10^4 cells/ml | 49.5 ± 3.1 ×10^4 cells/ml | results in the influx of neutrophilic and eosinophilic granulocytes in the lungs | significant increase | 2 | 11.7 ± 0.8 ×10^5 | 55 ± 1 ×10^5
FMLP | – | – | – | – | – | – | – | 10.7± 3 ×10^5 | 61 ± 5 ×10^5
